In assay [1] the target is T1, insect ecdysteroid receptor (EcR) (Spodoptera frugiperda, UniProt Q8MWR2).
T1 construct: To an Sf-9 cell suspension (400 μL; (2.0–3.0) × 10^6 cells/mL) in a disposable culture tube; endogenous in cells; host or cells: Sf-9 cells
T1 sequence (Q8MWR2 1-403): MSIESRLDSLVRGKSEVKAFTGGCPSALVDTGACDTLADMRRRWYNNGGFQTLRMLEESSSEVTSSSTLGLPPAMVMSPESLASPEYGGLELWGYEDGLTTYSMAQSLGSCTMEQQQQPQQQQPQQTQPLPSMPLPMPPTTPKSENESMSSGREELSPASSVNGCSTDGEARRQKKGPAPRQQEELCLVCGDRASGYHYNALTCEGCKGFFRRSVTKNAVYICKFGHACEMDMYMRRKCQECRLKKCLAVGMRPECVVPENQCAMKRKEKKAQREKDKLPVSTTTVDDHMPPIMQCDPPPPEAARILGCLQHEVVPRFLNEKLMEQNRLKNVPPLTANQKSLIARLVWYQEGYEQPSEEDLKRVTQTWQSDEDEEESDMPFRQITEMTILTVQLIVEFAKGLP
Kind of assay: EcR binding assay ([3H]PonA displacement in Sf-9 cells). The settings on record: for IC50: inhibition of [3H]PonA binding; for EcR binding activity in words: [3H]PonA binding; for EcR binding potency/affinity relative to 20E: fold higher than 20E; for inhibition at 25 µM: read-out: inh% at 25 μM. As to the method:
Tritiated PonA ([^3H]PonA; 3.5 TBq/mmol) was custom synthesized by American Radiolabeled Chemicals, Inc. (St. Louis, MO, USA). A stock solution of [^3H]PonA (30 000 dpm/μL, ∼0.1 μM) was prepared in 70% aqueous EtOH. Cold PonA and 20E were obtained from Enzo Biochem Inc. (New York, NY, USA) and Sigma-Aldrich Co. (St. Louis, MO, USA), respectively. Tebufenozide was obtained from stock samples. All test compounds were dissolved in DMSO. An Sf-9 cell line was cultured in EX-CELL 420 medium (SAFC Biosciences, Inc., Lenexa, KS, USA) supplemented with 10% fetal bovine serum.
The binding assay was performed as described previously with some modifications.[43],[44] To an Sf-9 cell suspension (400 μL; (2.0–3.0) × 10^6 cells/mL) in a disposable culture tube (12 mm × 75 mm) was added a test compound solution (1 μL), followed by a [^3H]PonA solution (2 μL, 60 000 dpm). After incubation at 25 °C for 30 min, the cell suspension was diluted with water (3 mL) and filtered through a glass fiber filter GF/B (25 mm; Whatman plc, Maidstone, UK). The filter was washed with water (2 × 3 mL), dried, and transferred to a glass vial. To the vial were added 3 mL of Insta-Gel Plus (PerkinElmer Inc., Waltham, MA, USA), and the radioactivity was measured with an LSC-8000 counter (Aloka, Tokyo, Japan). DMSO and PonA (final concentration: 2.7 μM) were used to determine the total and nonspecific binding, respectively. The test compounds were first screened at 25 μM, and the compounds with an inhibition rate of ≥50% were subjected to concentration–response experiments. The 50% inhibition concentration for [^3H]PonA binding [IC50 (M)] was determined using probit analysis,[45] and the logarithm of its reciprocal, pIC50, was used as the index of the binding affinity.

For another assay, the target named is T2, EcR (Spodoptera frugiperda, UniProt Q8MWR2).
T2 sequence (Q8MWR2 1-403): T1 sequence (Q8MWR2 1-403)
Kind of assay: Reporter gene assay (hsp27 ecdysone response element/firefly luciferase) in Sf-9 cells. The assay is classed as cell-based, insect. Particulars: for agonistic activity in reporter gene assay at 0.1 μM / agonistic activity in reporter gene assay at 1 μM: Sf-9 cells, luciferase reporter; for agonist/antagonist classification: binding assay combined with reporter gene assay. As to the method: The reporter gene assay was performed in Sf-9 cells according to a previously reported method.[46] Briefly, a reporter plasmid was constructed from pBmbA/hsp27/firefly luciferase (hsp27/Fluc), in which seven repeats of hsp27 ecdysone response element were inserted. This plasmid was a kind gift from Dr. Luc Swevers (Institute of Biosciences & Applications, National Center for Scientific Research “Demokritos”, Athens, Greece). The plasmid was amplified in Escherichia coli and purified using a QIAGEN plasmid midi kit (QIAGEN GmbH, Hilden, Germany). A cell suspension (approximately 2.0 × 10^6 cells/mL; 400 μL) was added to each well of a 24-well plate, and it was incubated for 1 h. Then, 200 μL of a mixture of plasmids and TransFast transfection reagent (Promega; Madison, WI, USA) was added to each well. After incubating for 24 h, 6 μL of a solution of test compound (1% v/v) was added and incubated. After 48 h, the medium in each well was removed with a pipet. Cells were lysed by adding 100 μL/well of Passive Lysis Buffer and incubating for 15 min at 25 °C. The lysate (20 μL) was transferred to a 96-well microplate for the luciferase assay. Chemical luminescence was measured using a 96-microplate GLOMAX luminometer (Promega), according to the manufacturer’s instructions.
(In general: A reporter such as luciferase makes a cellular process visible.)

[2] abbreviates: pIC50 (M), ecdysteroid receptor binding affinity, Sf-9 cell suspension, 25 °C, 30 min, probit analysis.

“And” between values parts separate entries of the source, which are not always exact repeats. Identical values can stand only once. Like-named read-outs stand apart in the source and are kept apart here.

`CC(C)CC[C@@H](O)[C@](C)(O)[C@H]1CC[C@@]2(O)C3=CC(=O)[C@@H]4C[C@@H](O)[C@@H](O)C[C@]4(C)[C@H]3CC[C@]12C` [PonA, ponasterone A, reference compound] showed an IC50 in assay [1] (setting [2]) of 8.91e-09 M.

Turning to `CC(C)CC[C@@H](O)[C@](C)(O)[C@H]1CC[C@H]2C3=CC(=O)[C@@H]4C[C@@H](O)[C@@H](O)C[C@]4(C)C3=CC[C@]12C` [Compound 5, 14-Deoxydacryhainansterone], the “agonistic activity in reporter gene assay at 0.1 μM” value (from here on “agonistic activity … at 0.1 μM”) on EcR is reported as “agonists”. The IC50 in assay [1] (IC50, EcR binding, Sf-9 cells) was 4.17e-08 M and 4.2e-08 M. Also, in assay [1] (Sf-9 cells), the “EcR binding activity in words” value is “strong”. Also, the “EcR binding potency/affinity relative to 20E” value in assay [1] is given as “approximately 4 times”.

In the case of `CC(C)(O)CC[C@@H](O)[C@](C)(O)[C@H]1CC[C@H]2C3=CC(=O)[C@@H]4C[C@@H](O)[C@@H](O)C[C@]4(C)[C@H]3CC[C@]12C` [Compound 8, 14-Deoxy-20-hydroxyecdysone], at EcR, the “agonistic activity … at 0.1 μM” value is “agonists”. Moreover, the “EcR binding potency/affinity relative to 20E” value in assay [1] worked out at 2.4 times. Besides, the IC50 in assay [1] (setting [2]) is 6.92e-08 M.

`CC(C)(O)CC[C@@H](O)[C@](C)(O)[C@H]1CC[C@@]2(O)C3=CC(=O)[C@H]4C[C@@H](O)[C@@H](O)C[C@]4(C)[C@@]3(O)CC[C@]12C` [Compound 21, 5α-9α,20-dihydroxyecdysone]: the “EcR binding activity in words” value in assay [1] (Sf-9 cells) is on record as “very weak activity”. In assay [1] (setting [2]), the IC50 is greater than 2.51e-05 M. For the same compound, in assay [1], the inhibition at 25 µM is 27.1%.

In the case of `CC(C)(O)CC[C@@H](O)[C@](C)(O)[C@H]1CC[C@@]2(O)C3=CC(=O)[C@@H]4C[C@@H](O)[C@@H](O)C[C@]4(C)[C@@]3(O)CC[C@]12C` [Compound 20, 9α,20-dihydroxyecdysone], in assay [1] (setting [2]), the IC50 was greater than 2.51e-05 M. Also, in assay [1], the inhibition at 25 µM was 45.7%.

`CC(C)(O)CC[C@@H](O)[C@](C)(O)[C@H]1CC[C@H]2C3=CC(=O)[C@H]4C[C@@H](O)[C@@H](O)C[C@]4(C)[C@H]3CC[C@]12C` [Compound 9, 5α-14-Deoxy-20-hydroxyecdysone]: the “EcR binding activity in words” value in assay [1] (Sf-9 cells) is on record as “very weak activity”. The same compound returned an IC50 in assay [1] (setting [2]) greater than 2.51e-05 M. For the same compound, in assay [1], the inhibition at 25 µM turned out to be 0.93%.

With `CC(C)(O)CC[C@@H](O)[C@](C)(O)[C@H]1CC[C@@]2(O)C3=CC(=O)[C@@H]4C[C@@H](O)[C@@H](O)C[C@]4(C)[C@H]3CC[C@]12C` [20E, 20-hydroxyecdysone, reference compound], in assay [1] (Sf-9 cell suspension, 25 °C, 30 min, probit analysis, read-out: pIC50 (M), ecdysteroid receptor binding affinity (converted)), the IC50 is 1.66e-07 M.

`CC1(C)CC[C@H]([C@](C)(O)[C@H]2CC[C@@]3(O)C4=CC(=O)[C@@H]5C[C@@H](O)[C@@H](O)C[C@]5(C)[C@H]4CC[C@]23C)O1` [Compound 13, shidasterone]: on EcR, the “agonistic activity in reporter gene assay at 1 μM” value (“agonistic activity … at 1 μM” for short) is on record as “did not activate the reporter gene” and the agonist/antagonist classification entry is listed as “ecdysteroid antagonists”. The IC50 in assay [1] (setting [2]) was 2.51e-06 M.

Consider `CC(C)(O)CC[C@@H](O)[C@](C)(O)[C@H]1CC[C@@H]2C3=CC(=O)[C@@H]4C[C@@H](O)[C@@H](O)C[C@]4(C)[C@H]3CC[C@@]21C` [Compound 10, 14β-14-Deoxy-20-hydroxyecdysone], for which the IC50 in assay [1] (setting [2]) was greater than 2.51e-05 M. Besides, the inhibition at 25 µM in assay [1] amounted to 18.2%.

On to `CC(C)(O)CC[C@@H](O)[C@](C)(O)[C@H]1CC[C@H]2C3=CC(=O)[C@@H]4C[C@@H](O)[C@@H](O)C[C@]4(C)C3=CC[C@]12C` [Compound 7, 14-Deoxy-25-hydroxydacryhainansterone], for which, at EcR, the “agonistic activity … at 0.1 μM” value is on record as “did not show agonistic activity” and the “agonistic activity … at 1 μM” value is “agonists”. In addition, in assay [1] (Sf-9 cells), the “EcR binding activity in words” value is given as “moderate”. In addition, the IC50 in assay [1] (setting [2]) was 4.79e-07 M.

Compound `CC(C)(O)CC[C@@H](O)[C@](C)(O)[C@H]1CC[C@@]2(O)C3=C/C(=N\O)[C@@H]4C[C@@H](O)[C@@H](O)C[C@]4(C)[C@H]3CC[C@]12C` [Compound 18, 20-hydroxyecdysone 6(E)-oxime] returned an IC50 in assay [1] (setting [2]) of roughly 2.51e-05 M. The inhibition at 25 µM in assay [1] was 60.1%.

On to `CCC1(CC)O[C@H]2C[C@@]3(C)[C@@H](C[C@H]2O1)C(=O)C=C1[C@@H]3CC[C@]2(C)[C@@H]([C@@](C)(O)[C@H](O)CCC(C)(C)O)CC[C@@]12O` [Compound 19, 28,28-diethyl-2,3-methylidene-20-hydroxyecdysone], for which, at EcR, the “agonistic activity … at 1 μM” value is “did not activate the reporter gene” and the agonist/antagonist classification entry was “ecdysteroid antagonists”. In addition, the IC50 in assay [1] (setting [2]) is 3.02e-06 M.

`CC(C)(O)CC[C@@H](O)[C@](C)(O)[C@H]1CC[C@@]2(O)C3=C/C(=N/O)[C@@H]4C[C@@H](O)[C@@H](O)C[C@]4(C)[C@H]3CC[C@]12C` [Compound 17, 20-hydroxyecdysone 6(Z)-oxime] showed an IC50 in assay [1] (setting [2]) greater than 2.51e-05 M. The inhibition at 25 µM in assay [1] was found to be 4.53%.

Regarding `CC(C)(O)CC[C@@H](O)[C@](C)(O)[C@H]1CC[C@@H]2C3=C(CC[C@@]21C)[C@@]1(C)C[C@H](O)[C@H](O)CC1=C(O)C3=O` [Compound 4, 14β-14,15-Dihydrocalonysterone], the IC50 in assay [1] (setting [2]) was roughly 2.51e-05 M. The inhibition at 25 µM in assay [1] was 49.8%.

`CC(C)CC[C@@H](O)[C@](C)(O)[C@H]1CC[C@@]2(O)C3=CC(=O)[C@@H]4C[C@@H](O)[C@@H](O)C[C@]4(C)[C@H]3[C@H](O)C[C@]12C` [Compound 14, ajugasterone C]: the “agonistic activity … at 0.1 μM” value on EcR is “agonists”. Also, in assay [1] (setting [2]), the IC50 is 6.46e-07 M.

The compound `CC(C)(O)CC[C@@H](O)[C@](C)(O)[C@H]1CC=C2C3=C(CC[C@@]21C)[C@@]1(C)C[C@H](O)[C@H](O)CC1=C(O)C3=O` [Compound 11, calonysterone] displayed an IC50 in assay [1] (setting [2]) greater than 2.51e-05 M. In assay [1], the inhibition at 25 µM came to 0%.

`C/C(=N\O)[C@H]1CC[C@@]2(O)C3=CC(=O)[C@@H]4C[C@@H](O)[C@@H](O)C[C@]4(C)[C@H]3CC[C@]12C` [Compound 16, poststerone 20(E)-oxime] yielded an IC50 in assay [1] (setting [2]) greater than 2.51e-05 M. Moreover, in assay [1], the inhibition at 25 µM was found to be 4.3%.

In the case of `CC(C)CC[C@@H](O)[C@](C)(O)[C@H]1CC[C@@]2(O)C3=CC(=O)[C@@H]4C[C@@H](O)[C@@H](O)C[C@]4(C)C3=CC[C@]12C` [Compound 12, dacryhainansterone], the “agonistic activity … at 0.1 μM” value at EcR was “agonists”. Further, in assay [1] (Sf-9 cells), the “EcR binding activity in words” value is recorded as “strong”. Also, in assay [1] (setting [2]), the IC50 is 2.29e-08 M.

For the compound `CC(C)(O)CC[C@@H](O)[C@](C)(O)[C@H]1CC[C@@]2(O)C3=CC(=O)[C@H]4C[C@@H](O)C[C@@H](O)[C@]4(C)[C@H]3CC[C@]12C` [Compound 15, 5α-2-deoxyintegristerone A], in assay [1] (Sf-9 cells), the “EcR binding activity in words” value is reported as “very weak activity”. The compound also gave an IC50 in assay [1] (setting [2]) greater than 2.51e-05 M. For the same compound, the inhibition at 25 µM in assay [1] came out at 2.42%.
